Assay results published in patent US20250052985A1, “SYSTEM AND METHOD FOR QUANTITATIVE PHASE IMAGING FOR MULTI-PARAMETRIC SCREENING OF TUMOR THERAPY RESPONSE” (UNIVERSITY OF UTAH RESEARCH FOUNDATION, priority 2023, published 2025).
Several values for one entry are separate records, joined by “and”; a condition that tells them apart may be missing. Equal values may be shown once. Read-outs that look alike come from different tables or passages of the source.

What was measured:
BT-474 cells [1] = experiment: CellTiter-Glo (CTG) ATP viability assay, BT-474; format: cell-based; settings: for EC50: Homo sapiens
Method: CTG (e.g., read by the CTG reader 115) is a cell viability assay that quantifies the amount of ATP present at the end of an experiment as an indicator of the number of live cells. The electronic controller 155 measures ATP content in each condition as a readout by a luminescent signal, which is normalized by the luminescence of the control (e.g., a control well) to determine cell viability relative to on-plate controls. In some embodiments, the CTG assay is performed by first removing 100 μL of media from each well on the well-plate 105, which is then replaced with an equal amount of CellTiter-Glo reagent (e.g., Promega, G7572). Assayed plates may be shaken at 500 RPM for 20 minutes and allowed to rest for 10 minutes. In some instances, 100 μL of volume from each well is transferred to a white 96-well plate (e.g., Perkin Elmer, 6005680). The electronic controller 155 collects luminescence data from each well using an Envision plate reader (e.g., Perkin Elmer) and normalized against the solvent control to measure ATP content. The electronic controller 155 fits a 4-parameter hill curve to the dose response to determine the EC50 and depth of response.

MDA-MB-231 cells = experiment: Quantitative phase imaging (QPI) growth response, MDA-MB-231; format: cell-based; set-up: DoR QPI: scale not given here; ToR 20 μM: unit not given here; settings: for Max Asymptote / Min Asymptote: MDA-MB-231, 4-parameter Hill fit of mean SGR vs concentration, one line per replicate; for EC50: Homo sapiens; for SGR (specific growth rate) / tD: one individual MDA-MB-231 cell, 2 μM doxorubicin
From the text: (§1) In some embodiments, breast cancer cell lines are imaged, representing diverse clinical subtypes, summarized in Table 2 below, using a QPI microscope (FIG. 1A) based on differential phase contrast (DPC) microscopy and phase reconstruction via a QPI microscope system. DPC is used for image acquisition and phase reconstruction because DPC's flexible design may be customized for high throughput phase measurements. […] As illustrated in the embodiment of FIG. 1A, a QPI microscope system 100 conducts assays in a 96-well plate (e.g., a well-plate 105) with 6-point dose response curves and up to five therapies in triplicate including solvent controls, summarized in Table 4 below. As described below, in reference to FIG. 1A, a growth response of cells is measured noninvasively using QPI via a QPI microscope system 110 before being assayed using a CTG reader 115.
(§2) FIG. 1B illustrates a timeline plot 200 showing two plates (e.g., two, separate well-plates 105) set up in parallel to measure cell viability. With reference to FIG. 1B, two plates are set-up simultaneously for each experiment. A first plate 205 is incubated for 27 hours (h) post drug exposure prior to CTG analysis (3 h equilibration+24 h of imaging), which measures cell adenosine triphosphate (ATP) content as a surrogate for cell viability. A second plate 210 is imaged for 72 h after 3 h equilibration (e.g., 75 h) and followed by CTG. […] The imaging locations are imaged for 72 h, as shown by images 1700-1715 of FIG. 7.
(§3) In some embodiments, a dose-dependent change in growth, as indicated by a change in the rate of mass accumulation or loss, is a parameter that can be extracted from QPI dose-response data. […] Individual specific growth rate measurements are indicated by points in the distribution of the graph 1200 of FIG. 2A. Blue is indicative of the DMSO control and red is indicative of doxorubicin. The black outline is a kernel density function fit to the distribution of specific growth rates for each condition (e.g., *p<0.05, **p<0.01). In some embodiments, the average SGR of each condition is fit to a sigmoid dose-response curve using a Hill equation. For example, computed logistic fit parameters using a 4-parameter Hill model via the QPI microscope system 110 for all conditions are summarized in Tables 5-8 below. To determine if there is a response, as illustrated by FIG. 2B, the QPI microscope system 110 tests goodness of fit, adjusts for degrees of freedom using an F-test at significance p<0.01 by comparison to a flat line, as an indicator of no response. For cases with a better fit to the Hill equation, the 4-parameter Hill curve may be used by the QPI microscope system 110 to determine the EC50, a measure of sensitivity to therapy because it represents the effective concentration at which 50% of the cells respond to therapy, as illustrated by FIG. 10. […] A 4-parameter Hill curve is fit to each dose response plot to extract the depth of response and EC50 for each cell/drug pair. A flat line represents no response due to failure of the F-test to reject the null hypothesis that the logistic fit is indistinguishable from a flat line. […] Each color indicates a different drug or therapy used.

BT-474 cells [2] = experiment: cells; settings: for Max Asymptote / Min Asymptote: BT-474, 4-parameter Hill fit of mean SGR vs concentration, one line per replicate; for Hill Slope / log10(EC50): BT-474, Hill fit; for EC50: Homo sapiens
From the text: as §1, §2, §3

MCF-7 cells = experiment: cells; settings: for Hill Slope / log10(EC50): MCF-7, Hill fit; for EC50: Homo sapiens
From the text: as §1, §2, §3

[3] = 24 h QPI, EC50 in μM per Table 1
[4] = 72 h QPI, EC50 in μM per Table 1

Compound: COc1cccc2c1C(=O)c1c(O)c3c(c(O)c1C2=O)C[C@@](O)(C(=O)CO)C[C@@H]3O[C@H]1C[C@H](N)[C@H](O)[C@H](C)O1 [Doxorubicin]
- Hill Slope (BT-474 cells [1]; 72 h CTG, BT-474, Hill fit): 8.999 and 8.652
- log10(EC50) (BT-474 cells [1]; 72 h CTG, BT-474, Hill fit): 0.3455
- Min Asymptote (BT-474 cells [1]; 72 h CTG, BT-474, Hill fit of luminescence normalized to solvent control, one line per replicate): 0.5407 (2×) and 0.5602
- DoR CTG (BT-474 cells [1]; BT-474 cell line, depth of response, CellTiter-Glo): 0.5
- EC50 (BT-474 cells [1]; BT-474, 72 h, 72 h CTG, BT-474, Hill fit, read-out: log10(EC50) (converted)): 0.434 µM
- EC50 (BT-474 cells [1]; BT-474, BT-474 cell line, CellTiter-Glo, read-out: EC50, CTG): 0.4 µM
- Max Asymptote (MDA-MB-231 cells; 24 h QPI): 0.03123 and 0.03492 and 0.03444
- Min Asymptote (MDA-MB-231 cells; 24 h QPI): 0.002229 and 0.006476 and 0.003476
- Hill Slope (MDA-MB-231 cells; 24 h QPI, MDA-MB-231, Hill fit): 1.1528 and 1.2328 and 1.1155
- Max Asymptote (MDA-MB-231 cells; 72 h QPI): 0.0002323 and 0.002183
- Min Asymptote (MDA-MB-231 cells; 72 h QPI): 0.03291 and 0.03136
- Hill Slope (MDA-MB-231 cells; 72 h QPI, MDA-MB-231, Hill fit): 0.9982 and 1.1886
- log10(EC50) (MDA-MB-231 cells; 72 h QPI, MDA-MB-231, Hill fit, EC50 in μM per Table 1): 1.0414
- EC50 (MDA-MB-231 cells; MDA-MB-231, 72 h, 72 h QPI, MDA-MB-231, Hill fit, EC50 in μM per Table 1, read-out: log10(EC50) (converted)): 0.0794 µM
- EC50 (MDA-MB-231 cells; MDA-MB-231, MDA-MB-231 cell line, EC50 of the standard deviation, read-out: EC50, SD (converted)): 0.549 µM
- EC50 (MDA-MB-231 cells; MDA-MB-231, MDA-MB-231 cell line, QPI growth rate, read-out: EC50, QPI): 0.1 µM
- Hellinger distance of SGR distribution from control (MDA-MB-231 cells; MDA-MB-231, 0.08 μM): greater than the threshold indicating a response
- Hellinger distance of SGR distribution from control (MDA-MB-231 cells; MDA-MB-231, 0.4 μM): much greater Hellinger distance from the control
- reduction of heterogeneity (SD of growth rates) (MDA-MB-231 cells; MDA-MB-231, 20 μM, 72 h): fourfold
- growth rate and heterogeneity over time (MDA-MB-231 cells; MDA-MB-231, highest concentration, FIG. 21 F): simultaneously decreases in growth rate and heterogeneity
- growth rate and heterogeneity over time (MDA-MB-231 cells; MDA-MB-231, middle concentrations, FIG. 21 C-E): change in growth rate over time with little to no change in heterogeneity
- DoR QPI (MDA-MB-231 cells; MDA-MB-231 cell line, depth of response, QPI): 1.0
- ToR 20 μM (MDA-MB-231 cells; MDA-MB-231 cell line, time of response at 20 μM): −3.0
- SGR (specific growth rate) (MDA-MB-231 cells; abrupt decrease in mass during cell death): -0.217 h⁻¹
- tD (MDA-MB-231 cells; first 10 h): 19 h
- SGR (specific growth rate) (MDA-MB-231 cells; first 10 h, robust growth): 0.0358 h⁻¹
- tD (MDA-MB-231 cells; next 26 h): 66 h
- SGR (specific growth rate) (MDA-MB-231 cells; next 26 h, reduced growth): 0.0105 h⁻¹
- SGR (specific growth rate) (MDA-MB-231 cells; subsequent gradual loss of mass): -0.0033 h⁻¹
- Max Asymptote (BT-474 cells [2]; 24 h QPI): 0.01297 and 0.01051 and 0.00993
- Min Asymptote (BT-474 cells [2]; 24 h QPI): −0.001567 and −0.002506 and −0.002371
- Hill Slope (BT-474 cells [2]; 24 h QPI): 1.5047 and 1.6529 and 1.3096
- log10(EC50) (BT-474 cells [2]; [3]): −0.2827 and −0.2235
- Max Asymptote (BT-474 cells [2]; 72 h QPI): −0.00359 and −0.003807 and −0.003696
- Min Asymptote (BT-474 cells [2]; 72 h QPI): 0.009626 and 0.009175 and 0.009318
- Hill Slope (BT-474 cells [2]; 72 h QPI): 3.7081 and 4.795 and 3.6266
- log10(EC50) (BT-474 cells [2]; [4]): 0.3361 and 0.3186
- DoR QPI (BT-474 cells [2]; BT-474 cell line, depth of response, QPI): 1.4
- ToR 20 μM (BT-474 cells [2]; BT-474 cell line, time of response at 20 μM): 3.4
- EC50 (BT-474 cells [2]; BT-474, 24 h, read-out: log10(EC50), 24 h QPI, BT-474, Hill fit (converted), EC50 in μM per Table 1): 1.78 µM
- EC50 (BT-474 cells [2]; BT-474, 72 h, read-out: log10(EC50), 72 h QPI, BT-474, Hill fit (converted), EC50 in μM per Table 1): 0.475 µM
- EC50 (BT-474 cells [2]; BT-474, read-out: EC50, QPI, BT-474 cell line, QPI growth rate): 0.5 µM
- cluster mass tracked over time (BT-474 cells [2]; small cluster of BT-474 cells, 2 μM, 72 h): losing mass
- Max Asymptote (MCF-7 cells; 24 h QPI, MCF-7, 4-parameter Hill fit of mean SGR vs concentration, one line per replicate): 0.03024 and 0.03614 (2×)
- Hill Slope (MCF-7 cells; 24 h QPI): 0.4225 and 0.5056
- log10(EC50) (MCF-7 cells; [3]): 0.2581
- Min Asymptote (MCF-7 cells; 72 h QPI, MCF-7, 4-parameter Hill fit of mean SGR vs concentration, one line per replicate): 0.02487 and 0.02696 and 0.02807
- Hill Slope (MCF-7 cells; 72 h QPI): 1.1171 and 1.2782 and 1.7872
- log10(EC50) (MCF-7 cells; [4]): 0.7197 and 0.7012
- EC50 (MCF-7 cells; MCF7, 72 h, read-out: log10(EC50), 72 h QPI, MCF-7, Hill fit (converted), EC50 in μM per Table 1): 0.235 µM
- EC50 (MCF-7 cells; MCF7, read-out: EC50, QPI, MCF-7 cell line, QPI growth rate): 0.2 µM
- EC50 (MCF-7 cells; MCF7, read-out: EC50, SD, MCF-7 cell line, EC50 of the standard deviation): 11 µM
- SGR minimum (mean±standard deviation, SD) (MCF-7 cells; MCF-7, 20 μM, highest dose tested): −0.003+0.004 h^−1
- DoR QPI (MCF-7 cells; MCF-7 cell line, depth of response, QPI): 1.1
- ToR 20 μM (MCF-7 cells; MCF-7 cell line, time of response at 20 μM): −1.3
